{"source": "patent US9133154B2", "about": "“Substituted 3-phenylpropylamine derivatives for the treatment of ophthalmic diseases and disorders” (Acucela Inc., priority 2013, dated 2015)", "key": {"[1]": {"system": "regeneration of 11-cis-retinal", "experiment": "Single dose time course in the in vivo isomerase assay at 0.3 mg/kg", "parameters": "species or system BALB/c mice", "details": "for activity at 0.3 mg/kg: Mus musculus, read-out: Percent Control (Avg. % Inhibition)", "method": "All test compounds were stored at room temperature, dessicated.\nThe compounds were dissolved in di-water at the concentration of 0.068 mg/mL and stored overnight at 4° C.\n52 Male BALB/c mice (Charles River Laboratories) were used for this study. The mice were approximately 8 weeks at the initiation of dosing with an average body weight of 23 grams.\nThe day prior to dose administration 52 BALB/c mice were placed into a dark room and dark adapted for a minimum of 12 hours prior to dose administration. The mice were maintained in the dark for the duration of the study.\nEach animal was removed from its cage and dosed accordingly to the study design in Table 10 (see below). Each animal was administered 0.1 mL of the appropriate test article or vehicle orally using a 1 mL syringe fitted with a 23 gauge oral gavage needle. At 2, 4, 6, 8, 16 or 24 hours following dose administration, animals were removed from the dark and exposed to 5000 Lux white light for 10 minutes to photobleach their eyes. Following the completion of the photobleach the animals were returned to the dark for 2 hours to allow for the regeneration of 11-cis-retinal in the eyes. Two hours after photobleaching each animal was euthanized with carbon dioxide followed by cervical dislocation, in the dark under red light. The light control group was euthanized immediately following photobleaching. Immediately following the cervical dislocation both eyes of each animal were removed and transferred into separate tubes, flash frozen in liquid nitrogen and stored in the dark at −80° C. until processing and analysis.\n(§1) All sample processing procedures were performed in the dark under red light.\nExtracted samples were analyzed using an Agilent 1100 HPLC system according to the procedure outlined in Table 12 (see below)\nHPLC analysis of the eyes measures the peak area units of the 110cis-Ral-Oxime_syn. Signal.\nData analysis % inhibition (drug vs. recovery control). % control (drug vs. light control), and One-way ANOVA (followed by Tukey's Multiple Comparison) were performed using peak area units and performed by Prism software. Data are represented as mean and standard deviation."}, "[2]": {"system": "isomerase (recovery of 11-cis-retinal after bleaching)", "experiment": "In vivo murine isomerase assay", "details": "mice, oral gavage", "quoted_text": "The capability of compounds described herein to inhibit isomerase was determined by an in vivo murine isomerase assay. […] The recovery of 11-cis-retinal after bleaching can be used to estimate the activity of isomerase in vivo. Delayed recovery, as represented by lower 11-cis-retinal oxime levels, indicates inhibition of isomerization reaction.\nMice were gavaged with the test compound. […] The mice were allowed to recover 2 hours in the dark. The animals were then sacrificed by carbon dioxide inhalation. Retinoids were extracted from the eye and the regeneration of 11-cis-retinal was assessed at various time intervals.\nAfter the mice were sacrificed, the eyes were immediately removed and placed in liquid nitrogen for storage.\nThe eyes were placed in 500 μL of bis-tris propane buffer (10 mM, pH˜7.3) and 20 μL of 0.8M hydroxile amine (pH˜7.3). The eyes were cut up into small pieces with small iris scissors and then thoroughly homogenized at 30000 rpm with a mechanical homogenizer (Polytron PT 1300 D) in the tube until no visible tissue remained. 500 μL of methanol and 500 μL of heptane were added to each tube. The tubes were attached to a vortexer so that the contents were mixed thoroughly for 15 minutes in room temperature. The organic phase was separated from the aqueous phase by centrifugation for 10 min at 13K rpm, 4° C. 240 μL of the solution from the top layer (organic phase) was removed and transferred to clean 300 μl glass inserts in HPLC vials using glass pipette and the vials were crimped shut tightly.\nThe samples were analyzed on an Agilent 1100 HPLC system with normal phase column: SILICA (Beckman Coutlier, dp 5 μm, 4.6 mM×250 mM). […] Loading volume for each sample was 100 μA detection wavelength was 360 nm. The area under the curve for 11-cis retinal oxime was calculated by Agilent Chemstation software and was recorded manually. Data processing was performed using Prizm software.\nPositive control mice (no compound administered) were sacrificed fully dark-adapted and the eye retinoids analyzed. Light (bleached) control mice (no compound administered) were sacrificed and retinoids isolated and analyzed immediately after light treatment.\nA time course study was performed to determine the isomerase inhibitory activity of the test compound. […] The animals were then “photo-bleached” (5000 Lux white light for 10 minutes) at 2, 4, 8, 16 and 24 hours after dosing, and returned to darkness to allow recovery of the 11-cis-retinal content of the eyes. Mice were sacrificed 2 hours after bleaching, eyes were enucleated, and retinoid content is analyzed by HPLC.\nRecovery control mice (vehicle-only treated) were light-treated and left to recover for 2 hours in the dark before sacrifice and analysis. Light control mice (vehicle only treated) were sacrificed for analysis immediately after photo-bleaching.\nAn in vivo dose response isomerase inhibition study was performed with test compound. […] Recovery and retinoid analysis were performed as described above. Dark control mice were vehicle-only treated, sacrificed fully dark adapted without light treatment, and analyzed. Recovery control mice and light control mice were included in the study as per the initial phase."}, "[3]": {"system": "accumulation of A2E in the eyes", "experiment": "A2E accumulation model", "type": "in vivo, abca4−/−, RPE65 Leu450Leu mice", "details": "for Day 91 A2E Concentration, individual animals: 91 days, left eye, animals 1-8, listed as Test cmpd", "method": "The purpose of this study was to assess the ability of test compounds to inhibit the accumulation of A2E in the eyes of abca4^−/−, RPE65 Leu450Leu mice (ABCR) following 91 days of continuous dosing.\nThe test compound (R)-3-amino-1-(3-((tetrahydro-2H-pyran-4-yl)methoxy)phenyl)-propan-1-ol (Example 1) was stored in a freezer set to maintain at approximately −20° C.\nOn the day prior to dosing and once weekly for 13 weeks the test articles were weighed into new empty glass scintillation vials. The compound was dissolved in ethanol (10% of final volume) and then diluted with deionized water (90% of total final volume) resulting in a concentrations of 0.2 mg/mL. This dosing solution was administered to the high dose groups (1 mg/kg). For the low dose groups (0.1 mg/kg) a […] dosing solution was prepared by diluting with vehicle (10% ethanol 90% water) to the appropriate concentration. The dosing solutions were stored in a refrigerator set to maintain between 2 to 8° C. and used for dose administration once per day for one week. The vehicle used for dosing control groups was 10% ethanol 90% deionized water.\nMale and female abca4^−/−, and RPE65 Leu450Leu, mice (Charles River Laboratories) were used for this study. The mice were approximately 8-12 week old at the initiation of dosing with a starting average body weight of 19 grams for females and 27 grams for males.\nGroup 1 animals (Time zero for A2E accumulation) were euthanized with carbon dioxide followed by cervical dislocation on the first day of dosing. Immediately following the cervical dislocation both eyes of the animal was removed and transferred into separate tubes, flash frozen in liquid nitrogen and stored in the dark at −80° C. until processing and analysis.\nThe remaining groups (2-4) were dosed once each day for 13 weeks. When dosed each animal was administered a 5 mL/kg dose of the appropriate test compound or vehicle via oral gavage using a 1 mL syringe fitted with a 20 gauge oral gavage needle. Upon the completion of the study, animals were euthanized with carbon dioxide followed by cervical dislocation. Immediately following the cervical dislocation both eyes of the animal was removed and transferred into separate tubes, flash frozen in liquid nitrogen and stored in the dark at −80° C. until processing and analysis for A2E concentration.\nas §1\nExtracted samples were analyzed using an Agilent 1100 HPLC system according to the procedure outlined in Table 21 (See Below)\nHPLC analysis of the eyes looks at the peak area units of the A2E present in the eyes following extraction as described above.\nData analysis % inhibition (drug vs. recovery control), % control (drug vs. light control), and One-way ANOVA (followed by Tukey's Multiple Comparison) were performed using peak area units and performed by Prism software. Data are represented as mean and standard deviation."}}, "note": "Values joined by “and” are separate entries in the source; they are usually repeats but may differ in a detail not shown here. Equal values may be shown once. “Also recorded” adds a separate entry of the source. Read-outs that look alike come from different tables or passages of the source."}
{"compound": "NCC[C@@H](O)c1cccc(OCC2CCOCC2)c1", "note": "[Example 1]", "values": [{"measurement": "significance of inhibitory effect on the recovery of 11-cis-retinal vs. recovery control", "setting": "[1]; BALB/c mice, single oral 0.3 mg/kg, 2, 4, 6, 8, 16 and 24 hours, listed as compound A, 0.3 mg/kg", "result": "statistically significant difference, P<0.001, from the recovery control group for the 2, 4 and 6 hour time points; also recorded: not a statistically significant difference, P>0.05 for the 8, 16 and 24 time points; also recorded: significant inhibitory effect at 2, 4 and 6 hours; also recorded: no significant effect on the recovery of 11-cis-retinal at the 8, 16 and 24 hour time points; also recorded: statistically significant from the control group at the 2, 4, and 6 hour time points"}, {"measurement": "activity at 0.3 mg/kg", "setting": "[1]; BALB/c mice, single oral 0.3 mg/kg, time point 2 hours", "result": 2, "unit": "%"}, {"measurement": "activity at 0.3 mg/kg", "setting": "[1]; BALB/c mice, single oral 0.3 mg/kg, time point 4 hours", "result": 11.5, "unit": "%"}, {"measurement": "activity at 0.3 mg/kg", "setting": "[1]; BALB/c mice, single oral 0.3 mg/kg, time point 6 hours", "result": 43.7, "unit": "%"}, {"measurement": "activity at 0.3 mg/kg", "setting": "[1]; BALB/c mice, single oral 0.3 mg/kg, time point 8 hours", "result": 79.8, "unit": "%"}, {"measurement": "activity at 0.3 mg/kg", "setting": "[1]; BALB/c mice, single oral 0.3 mg/kg, time point 16 hours", "result": 98.5, "unit": "%"}, {"measurement": "activity at 0.3 mg/kg", "setting": "[1]; BALB/c mice, single oral 0.3 mg/kg, time point 24 hours", "result": 95.8, "unit": "%"}, {"measurement": "times more active than compound D", "setting": "[1]; time course experiment, 0.3 mg/kg", "result": "greater than 10 ×"}, {"measurement": "% Inhibition", "setting": "[2]; dose 0.3 mg/kg, time 2 h", "result": 40.2, "unit": "%"}, {"measurement": "% Inhibition", "setting": "[2]; dose 1 mg/kg, time 2 h", "result": 96.7, "unit": "%"}, {"measurement": "% Inhibition", "setting": "[2]; dose 1 mg/kg, time 4 h", "result": 92.8, "unit": "%"}, {"measurement": "Day 91 A2E Concentration, individual animals", "setting": "[3]; 0.1 mg/kg oral once daily", "result": "9.64 Pico Moles/eye and 8.97 Pico Moles/eye and 10.23 Pico Moles/eye and 8.42 Pico Moles/eye and 8.49 Pico Moles/eye and 9.6 Pico Moles/eye and 11.68 Pico Moles/eye and 10.27 Pico Moles/eye"}, {"measurement": "Day 91 A2E Concentration, individual animals", "setting": "[3]; 1.0 mg/kg oral once daily", "result": "6.49 Pico Moles/eye and 7.68 Pico Moles/eye and 7.75 Pico Moles/eye and 8.87 Pico Moles/eye and 7.56 Pico Moles/eye and 8.01 Pico Moles/eye and 8.86 Pico Moles/eye and 9.49 Pico Moles/eye"}, {"measurement": "effect on the accumulation of A2E", "setting": "[3]; 91 days of oral dosing at 0.1 mg/kg and 1.0 mg/kg", "result": "statistically significant inhibitory effects on the accumulation of A2E"}, {"measurement": "inhibition at 0.1 mg/kg", "setting": "[3]; Mus musculus, 2184 h, 0.1 mg/kg daily oral administration for 91 days", "result": 46.4, "unit": "%"}, {"measurement": "inhibition at 1 mg/kg", "setting": "[3]; Mus musculus, 2184 h, 1 mg/kg daily oral administration for 91 days", "result": 65, "unit": "%"}]}
